Data from US20220202799A1, “PHARMACEUTICAL FORMULATIONS CONTAINING P2Y14 ANTAGONISTS” (priority 2019, published 2022).
Read-outs that look alike come from different tables or passages of the source. Marks after values point to notes of the source that are not given here.

Columns and labels:
[1] = Stability of PPTN in SBECD-containing solution under various storage conditions (UHPLC-UV); type: physicochemical; settings: 9 mg/mL PPTN, 12% SBECD; for [PPTN]: in mg/mL
Method: The stability of PPTN in SBECD-containing solutions was analyzed under various storage conditions. 20-mL glass vials containing 10 mL of a solution containing 9 mg/mL PPTN and 12% SBECD, as described above, were incubated under various conditions as described in Table 10.
Samples were analyzed by UHPLC-UV as described in Table 11.

[2] = Plasma concentrations during 24-hour continuous intravenous infusion; type: in vivo, Sprague-Dawley rats; settings: for Female/Male C24h Ratio: 24-hour intravenous infusion; for concentration at 1 h / concentration at 2 h / concentration at 4 h / concentration at 6 h / concentration at 8 h / concentration at 24 h: Sprague-Dawley, rat, plasma, iv
Method: The safety and pharmacokinetics of PPTN (KB-1801) in rats receiving continuous intravenous injections of SBECD-containing solutions were analyzed. Three cohorts of six male and six female rats each were given continuous intravenous infusion of PPTN (KB-1801) at 10 mg/kg/day, 30 mg/kg/day or 100 mg/kg/day in a dosing solution containing PPTN at 0.25 mg/mL, 0.75 mg/mL or 2.5 mg/mL and SBECD at about 3.8%. Dosing volume was 40 mIkg/day. [table]

[3] = female, 10 mg/kg, female Sprague-Dawley rats, 24-hour intravenous infusion at 10 mg/kg, read-out: Plasma concentration, Mean
[4] = female, 10 mg/kg, female Sprague-Dawley rats, 24-hour intravenous infusion at 10 mg/kg, read-out: Plasma concentration, individual animal
[5] = female, 30 mg/kg, female Sprague-Dawley rats, 24-hour intravenous infusion at 30 mg/kg, read-out: Plasma concentration, Mean
[6] = female, 30 mg/kg, female Sprague-Dawley rats, 24-hour intravenous infusion at 30 mg/kg, read-out: Plasma concentration, individual animal
[7] = female, 100 mg/kg, female Sprague-Dawley rats, 24-hour intravenous infusion at 100 mg/kg, read-out: Plasma concentration, Mean
[8] = female, 100 mg/kg, female Sprague-Dawley rats, 24-hour intravenous infusion at 100 mg/kg, read-out: Plasma concentration, individual animal
[9] = male, 10 mg/kg, male Sprague-Dawley rats, 24-hour intravenous infusion at 10 mg/kg, read-out: Plasma concentration, Mean

In the case of `O=C(O)c1cc(-c2ccc(C3CCNCC3)cc2)c2ccc(-c3ccc(C(F)(F)F)cc3)cc2c1` [KB-1801, 4-[4-(piperidin-4-yl)phenyl]-7-[4-(trifluoromethyl)phenyl]-2-naphthoic acid], the “[PPTN]” value ([1]; 2-5° C., 1d) is reported as 8.74, the “[PPTN]” value ([1]; 2-5° C., 7d) is reported as 8.69 and the “[PPTN]” value ([1]; 2-5° C., 14d) is reported as 8.98. The “[PPTN]” value ([1]; 2-5° C., 28d) was 8.65, the “[PPTN]” value ([1]; 25° C., 0d) was 8.72 and the “[PPTN]” value ([1]; 25° C., 1d) was 8.75. For the same compound, the “[PPTN]” value ([1]; 25° C., 7d) was 8.82, the “[PPTN]” value ([1]; 25° C., 14d) was 8.69 and the “[PPTN]” value ([1]; 25° C., 28d) was 8.71. For the same compound, the “[PPTN]” value ([1]; 40° C., 1d) was 8.71, the “[PPTN]” value ([1]; 40° C., 7d) was 8.71 and the “[PPTN]” value ([1]; 40° C., 14d) was 9.25**. For the same compound, the “[PPTN]” value ([1]; 40° C., 28d) was 8.73, the “Degradants in UHPLC-UV trace” value ([1]; 40° C., 28 days) was “No degradants were evident” and the “[PPTN]” value ([1]; 50° C., 1d) was 8.78. For the same compound, the “[PPTN]” value ([1]; −20° C., 1d (freeze/thaw)) was 9.0*, the “Female/Male C24h Ratio” value ([2]; Group 6, 10 mg/kg) was 1.36 and the “Female/Male C24h Ratio” value ([2]; Group 7, 30 mg/kg) was 0.88. For the same compound, the “Female/Male C24h Ratio” value ([2]; Group 8, 100 mg/kg) was 0.93, the concentration at 1 h [2, 3] was 216 ng/mL and the concentration at 2 h [2, 3] was 281 ng/mL. The concentration at 2 h [2, 4] was 383 ng/mL, the concentration at 4 h [2, 3] was 426 ng/mL and the concentration at 4 h [2, 4] was 445 ng/mL. The concentration at 6 h [2, 3] was 569 ng/mL, the concentration at 6 h [2, 4] was 726 ng/mL and the concentration at 8 h [2, 3] was 526 ng/mL. The concentration at 8 h [2, 4] was 678 ng/mL, the concentration at 24 h [2, 3] was 954 ng/mL and the concentration at 24 h [2, 4] was 753 ng/mL. For the same compound, the concentration at 1 h [2, 5] was 641 ng/mL, the concentration at 1 h [2, 6] was 603 ng/mL and the concentration at 2 h [2, 5] was 1430 ng/mL. For the same compound, the concentration at 2 h [2, 6] was 1950 ng/mL, the concentration at 4 h [2, 5] was 1530 ng/mL and the concentration at 4 h [2, 6] was 1250 ng/mL. The concentration at 6 h [2, 5] was 1640 ng/mL, the concentration at 6 h [2, 6] was 1390 ng/mL and the concentration at 8 h [2, 5] was 1730 ng/mL. The concentration at 8 h [2, 6] was 1740 ng/mL, the concentration at 24 h [2, 5] was 2500 ng/mL and the concentration at 1 h [2, 7] was 2040 ng/mL. For the same compound, the concentration at 1 h [2, 8] was 2630 ng/mL, the concentration at 2 h [2, 7] was 2310 ng/mL and the concentration at 4 h [2, 7] was 5210 ng/mL. The concentration at 4 h [2, 8] was 4540 ng/mL, the concentration at 6 h [2, 7] was 4300 ng/mL and the concentration at 6 h [2, 8] was 3550 ng/mL. The concentration at 8 h [2, 7] was 5660 ng/mL, the concentration at 8 h [2, 8] was 6390 ng/mL and the concentration at 24 h [2, 7] was 8150 ng/mL. For the same compound, the concentration at 24 h [2, 8] was 5590 ng/mL, the concentration at 1 h [2, 9] was 216 ng/mL and the concentration at 1 h ([2]; male, 10 mg/kg, male Sprague-Dawley rats, 24-hour intravenous infusion at 10 mg/kg, read-out: Plasma concentration, individual animal) was 216 ng/mL. The concentration at 2 h [2, 9] was 276 ng/mL.
